Converted amounts (≈) assume the structure as drawn.
Tests used:
Test in all cases: in vitro antibacterial evaluation, MIC by broth dilution
Type in all cases: cell-based
[1] = tested on: Escherichia coli; conditions: 18 hours at 35° C.
[2] = tested on: Streptococcus sp.; conditions: broth dilution, 18 hours at 35° C.
In short: (§1)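 Read-out: the lowest concentration at which the test strain fails to grow. Serial dilutions (64-0.06 μg/mL) in Muller-Hinton II […], 5×10^5 CFU/mL inoculum, NCCLS M7-A2 procedure.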

[3] = tested on: Staphylococcus sp.; conditions: broth dilution, 18 hours at 35° C.
In short: as §1

[4] = tested on: Enterococcus sp.; conditions: broth dilution, 18 hours at 35° C.
In short: as §1

MIC Escherichia coli (ATCC 25922) [1]: 64 µg/mL (≈ 44.6 µM)
MIC Escherichia coli (GC 4559) [1]: 64 µg/mL (≈ 44.6 µM)
MIC Escherichia coli (GC 4560) [1]: 1 µg/mL (≈ 0.698 µM)
MIC Streptococcus agalactiae (GC 4564) [2]: 2 µg/mL (≈ 1.4 µM)
MIC Streptococcus pneumoniae (ATCC 6301) [2]: 0.5 µg/mL (≈ 0.349 µM)
MIC Streptococcus pneumoniae (GC 1894) [2]: 0.25 µg/mL (≈ 0.174 µM)
MIC Streptococcus pneumoniae (GC 4565) [2]: 0.5 µg/mL (≈ 0.349 µM)
MIC Streptococcus pyogenes (GC 4563) [2]: 1 µg/mL (≈ 0.698 µM)
MIC Streptococcus pneumoniae (ATCC 6301) ([2]; inoculum 5×10^5 CFU/mL, strain ATCC 6301): 0.5 µg/mL (≈ 0.349 µM)
MIC Streptococcus pneumoniae (GC 1894) ([2]; inoculum 5×10^5 CFU/mL, strain GC 1894): 0.25 µg/mL (≈ 0.174 µM)
MIC Streptococcus pyogenes (GC 4563) ([2]; inoculum 5×10^5 CFU/mL, strain GC 4563): 1 µg/mL (≈ 0.698 µM)
MIC Streptococcus agalactiae (GC 4564) ([2]; inoculum 5×10^5 CFU/mL, strain GC 4564): 2 µg/mL (≈ 1.4 µM)
MIC Streptococcus pneumoniae (GC 4565) ([2]; inoculum 5×10^5 CFU/mL, strain GC 4565): 0.5 µg/mL (≈ 0.349 µM)
MIC Coagulase Negative Staphylococcus (GC 4547) [3]: 2 µg/mL (≈ 1.4 µM)
MIC Coagulase Negative Staphylococcus (GC 4548) [3]: 1 µg/mL (≈ 0.698 µM)
MIC Coagulase Negative Staphylococcus (GC 4549) [3]: 1 µg/mL (≈ 0.698 µM)
MIC Coagulase Negative Staphylococcus (GC 4551) [3]: 4 µg/mL (≈ 2.79 µM)
MIC Coagulase Negative Staphylococcus (GC 6257) [3]: 1 µg/mL (≈ 0.698 µM)
MIC Staphylococcus aureus (ATCC 29213) [3]: 4 µg/mL (≈ 2.79 µM)
MIC Staphylococcus aureus (GC 1131) [3]: 4 µg/mL (≈ 2.79 µM)
MIC Staphylococcus aureus (GC 3051) [3]: 2 µg/mL (≈ 1.4 µM)
MIC Staphylococcus aureus (GC 3053) [3]: 4 µg/mL (≈ 2.79 µM)
MIC Staphylococcus aureus (GC 4541) [3]: 2 µg/mL (≈ 1.4 µM)
MIC Staphylococcus aureus (GC 4542) [3]: 8 µg/mL (≈ 5.58 µM)
MIC Staphylococcus aureus (GC 4544) [3]: 4 µg/mL (≈ 2.79 µM)
MIC Staphylococcus aureus (GC 4545) [3]: 2 µg/mL (≈ 1.4 µM)
MIC Staphylococcus aureus-SMITH (GC 4543) [3]: 2 µg/mL (≈ 1.4 µM)
MIC Staphylococcus aureus (ATCC 29213) ([3]; strain ATCC 29213): 4 µg/mL (≈ 2.79 µM)
MIC Staphylococcus aureus (GC 1131) ([3]; strain GC 1131): 4 µg/mL (≈ 2.79 µM)
MIC Staphylococcus aureus (GC 3051) ([3]; strain GC 3051): 2 µg/mL (≈ 1.4 µM)
MIC Staphylococcus aureus (GC 3053) ([3]; strain GC 3053): 4 µg/mL (≈ 2.79 µM)
MIC Staphylococcus aureus (GC 4541) ([3]; strain GC 4541): 2 µg/mL (≈ 1.4 µM)
MIC Staphylococcus aureus (GC 4542) ([3]; strain GC 4542): 8 µg/mL (≈ 5.58 µM)
MIC Staphylococcus aureus-SMITH (GC 4543) ([3]; strain GC 4543): 2 µg/mL (≈ 1.4 µM)
MIC Staphylococcus aureus (GC 4544) ([3]; strain GC 4544): 4 µg/mL (≈ 2.79 µM)
MIC Staphylococcus aureus (GC 4545) ([3]; strain GC 4545): 2 µg/mL (≈ 1.4 µM)
MIC Coagulase Negative Staphylococcus (GC 4547) ([3]; strain GC 4547): 2 µg/mL (≈ 1.4 µM)
MIC Coagulase Negative Staphylococcus (GC 4548) ([3]; strain GC 4548): 1 µg/mL (≈ 0.698 µM)
MIC Coagulase Negative Staphylococcus (GC 4549) ([3]; strain GC 4549): 1 µg/mL (≈ 0.698 µM)
MIC Coagulase Negative Staphylococcus (GC 4551) ([3]; strain GC 4551): 4 µg/mL (≈ 2.79 µM)
MIC Coagulase Negative Staphylococcus (GC 6257) ([3]; strain GC 6257): 1 µg/mL (≈ 0.698 µM)
MIC Enterococcus avium (GC 4558) [4]: 16 µg/mL (≈ 11.2 µM)
MIC Enterococcus faecalis (ATCC 29212) [4]: 16 µg/mL (≈ 11.2 µM)
MIC Enterococcus faecalis (GC 2242) [4]: 16 µg/mL (≈ 11.2 µM)
MIC Enterococcus faecalis (GC 2691) [4]: 16 µg/mL (≈ 11.2 µM)
MIC Enterococcus faecalis (GC 3059) [4]: 32 µg/mL (≈ 22.3 µM)
MIC Enterococcus faecalis (GC 4552) [4]: 16 µg/mL (≈ 11.2 µM)
MIC Enterococcus faecalis (GC 4553) [4]: 16 µg/mL (≈ 11.2 µM)
MIC Enterococcus faecalis (GC 4554) [4]: 32 µg/mL (≈ 22.3 µM)
MIC Enterococcus faecalis (GC 6189) [4]: 16 µg/mL (≈ 11.2 µM)
MIC Enterococcus faecium (GC 2243) [4]: 16 µg/mL (≈ 11.2 µM)
MIC Enterococcus faecium (GC 4556) [4]: 16 µg/mL (≈ 11.2 µM)
MIC Enterococcus faecium (GC 4557) [4]: 4 µg/mL (≈ 2.79 µM)
MIC Enterococcus faecalis (ATCC 29212) ([4]; strain ATCC 29212): 16 µg/mL (≈ 11.2 µM)
MIC Enterococcus faecium (GC 2243) ([4]; strain GC 2243): 16 µg/mL (≈ 11.2 µM)
MIC Enterococcus faecalis (GC 4552) ([4]; strain GC 4552): 16 µg/mL (≈ 11.2 µM)
MIC Enterococcus faecalis (GC 4553) ([4]; strain GC 4553): 16 µg/mL (≈ 11.2 µM)
MIC Enterococcus faecalis (GC 4554) ([4]; strain GC 4554): 32 µg/mL (≈ 22.3 µM)
MIC Enterococcus faecium (GC 4556) ([4]; strain GC 4556): 16 µg/mL (≈ 11.2 µM)
MIC Enterococcus faecium (GC 4557) ([4]; strain GC 4557): 4 µg/mL (≈ 2.79 µM)
MIC Enterococcus avium (GC 4558) ([4]; strain GC 4558): 16 µg/mL (≈ 11.2 µM)
MIC Enterococcus faecalis (GC 6189) ([4]; strain GC 6189): 16 µg/mL (≈ 11.2 µM)
MIC Enterococcus faecalis (GC 2242) ([4]; inoculum 5×10^5 CFU/mL, strain GC 2242): 16 µg/mL (≈ 11.2 µM)
MIC Enterococcus faecalis (GC 2691) ([4]; inoculum 5×10^5 CFU/mL, strain GC 2691): 16 µg/mL (≈ 11.2 µM)
MIC Enterococcus faecalis (GC 3059) ([4]; inoculum 5×10^5 CFU/mL, strain GC 3059): 32 µg/mL (≈ 22.3 µM)
SMILES: COc1ccc(COCC2OC(OC3C(CO)OC(Oc4ccc(CC5NC(=O)C(C(C)c6ccccc6)NC(=O)CNC(=O)C(CO)NC(=O)C(C(O)C6CNC(=N)N6C6OC(CO)C(O)C(O)C6O)NC(=O)C(C(O)C6CNC(=N)N6)NC5=O)cc4)C(O)C3O)C(O)C(O)C2O)cc1F (stereo not shown) [Example 237]
MIC Staphylococcus haemolyticus (GC 4546) [3]: 1 µg/mL (≈ 0.698 µM)
MIC Staphylococcus haemolyticus (GC 4546) ([3]; strain GC 4546): 1 µg/mL (≈ 0.698 µM)
